# Measurements as given in paper PMC6595003, “Insights into real-time chemical processes in a calcium sensor protein-directed dynamic library” (Nature Communications, 2019).
# Values joined by “and” are separate entries in the source; they are usually repeats but may differ in a detail not shown here. Identical values can stand only once.
# What was measured:
# dNCS-1 [1] = target: T1, dNCS-1 (Drosophila melanogaster, UniProt Q9VWX8); assay: Tryptophan emission fluorescence of dNCS-1 at increasing ligand concentrations (apparent Kd); assay type: binding
# T1 construct: made in house; host or cells: E. coli
# T1 sequence (Q9VWX8 1-187): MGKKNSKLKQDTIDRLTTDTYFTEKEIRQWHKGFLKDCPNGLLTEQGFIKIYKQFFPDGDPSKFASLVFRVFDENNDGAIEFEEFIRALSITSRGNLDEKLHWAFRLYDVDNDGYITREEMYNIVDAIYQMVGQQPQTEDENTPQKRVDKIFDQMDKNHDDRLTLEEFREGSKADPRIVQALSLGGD
# Experimental: Fluorescence-based experiments with 3a–3e were carried out to estimate their affinity to dNCS-1.
# Mean ± SD from three independent experiments. The curves represent the least squares fitting of the experimental data to a 1:1 stoichiometry. To properly compare the different curves, intensities were normalized and represented. […] Input represents 1/10 cell lysates before IP. Quantifications of each lane from four experiments are shown below the blots. Bars represent percentage of NCS-1/ Ric8a binding (mean ± SD) normalized to DMSO. […] Mean ± SD from three independent experiments. […] Then, the percentage of picnotic bodies over the total nuclei was analyzed. Mean ± SD from three independent experiments. Paired two-tailed Student’s test ***P˂0.001; **P < 0.01; *P < 0.05. Source data are provided as a Source Data file. IP immunoprecipitation, WB western blot […]
# the length of the pass light (L) is 1cm (see Supplementary Table 3 and Supplementary […]
# Fluorescence emission experiments. Tryptophan emission fluorescence of dNCS-1 […]
# affinity and calculate the apparent dissociation constant, Kd. Fluorescence measurements were performed by Jobin Yvon Floromax4 spectrofluorimeter equipped […]
# 5% DMSO at 5 °C. The excitation wavelength was fixed at 295 nm, and the emission spectra range were collected over 300-400 nm.
# Then, three independent experiments were performed
# Fluorescence intensities were normalized and represented as (I0 − I)/I 0. I stands for the observed fluorescence emission at 345 nm (fluorescence maximum), and I0 is the observed fluorescence emission of the protein itself without any small molecule. The apparent dissociation constant was obtained using a least squares algorithm to fit the experimental data to a 1:1 stoichiometry model.6 The fitting was performed with KaleidaGraph Data Analysis Program. […]
# Protein expression and purification. Drosophila and human NCS-1 were over-expressed in E. coli and subsequently purified to homogeneity as previously described.9
# dNCS-1 [2] = target: T1, dNCS-1; assay: tr-NOESY, DOSY and 1H-NMR of DCL mixtures in the presence of dNCS-1; assay type: binding; settings: 281 K, up to 15 days
# Experimental: Fig. 4 HPLC-MS and NMR studies of the full dynamic combinatorial library. a DCL chromatograms after 5 h in the absence and in the presence of dNCS-1. Conditions: aldehyde 1 (1.2 µL, 50 mM), 2a–2e (3.6 µL, 50 mM), catalyst (1 µL, 12 M), dNCS-1:1 [1:1], Tris buffer (20 mM, pH 7.4), 1 mM CaCl2, 0.5 M NaCl, 1 mM DTT, T = 4 °C, 2% DMSO. DCC experiments were carried out in triplicate. b 1D-^1H NMR spectrum (red) of the mixture and DOSY experiment (black) of the DCL in the presence of dNCS-1 (281 K, 600 MHz). c Tr-NOESY spectrum of the DCL mixture in the presence of dNCS-1 (mixing time 200 ms, 281 K, 600 MHz). Amplification of the region δ 7.2–8.0 ppm. […]. The new signals that reveal the formation of 3b (aromatic region) and 2c (aliphatic region) are marked with stars. ^1H-STD-NMR (blue) and off-resonance (red) NMR spectra of the mixture 2b + 3c + dNCS-1 (281 K, 600 MHz) after 15 days
# DOSY-NMR and tr-NOESY-NMR experiments were also recorded to follow the exchange process.
# The experiments were performed on the same samples and spectrometer, at 281 K. The tr-NOESY mixing time was fixed at 200 ms. The DOSY experiments were acquired with 16 gradient increments to a final intensity decay of 90%.
# dNCS-1 [3] = target: T1, dNCS-1; assay: Protein-directed DCL, HPLC-MS relative peak area with and without dNCS-1
# Experimental: The reversibility of the DCL was evident, since an identical equilibrium distribution to that shown in Fig. 4a was obtained when two different starting points were employed. The observed degree of amplification was 3b > 3e ≥ 3d > 3a. The precise composition of the DCL (with and without dNCS-1), was assessed by measuring the relative peak area (RPA). Indeed, the normalized change of RPA was used to quantify the protein influence in the final outcome (Supplementary Figs. 9, 10 and Supplementary Tables 1, 2 and 3)[28]. […] Note that compounds 3a–3e can exist as E/Z isomers of the C = N bond. […].
# Aldehyde 1 (1.2 μL, 50 mM, DMSO), the five acylhydrazides 2a–2e (5 × 3.6 μL, 50 mM, DMSO), p-anisidine (1 μL, 12 M, DMSO) and buffer 20 mM Tris, 0.5 M NaCl and 1 mM CaCl2, 1 mM DTT at pH 7.4 (750 μL) in 3.3 % DMSO. The mixture was stabilized in 5 h at 4 °C. HPLC analysis was performed.
# Aldehyde 1 (1.2 μL, 50 mM, DMSO), the five acylhydrazides 2a–2e (5 × 3.6 μL, 50 mM, DMSO), p-anisidine (1 μL, 12 mM, DMSO) and dNCS-1 in buffer 20 mM Tris, 0.5 M NaCl and 1 mM CaCl2, 1 mM DTT at pH 7.4 (66.7 μM, 750 μL, 1 eq.). The experiment is in 3.3% DMSO. The mixture was stabilized for 5 h at 4 °C. Then, dNCS-1 was removed by ultrafiltration using an Amicon Ultra filter (0.5–10 KDa). HPLC analysis was performed and the traces were compared with the blank composition.
# Supplementary Figure 9. Relative Peak Area of the DCL with and without dNCS1. Aldehyde
# 1 (1.2 µL, 50 mM), 2a-e (3.6 µL, 50 mM), catalyst (1 µL, 12 M), dNCS-1:1 [1:1], tris buffer (20
# mM, pH 7.4), 1 mM CaCl2, 0.5 M NaCl, 1 mM DTT, T = 4 °C, 2% DM SO. Mean relative peak
# area (RPA) of each acylhydrazone of the library in the absence (blank) and presence of dNCS-1.
# Error bars indicate standard deviation (SD) over three experiments. The calculation is set by the
# sum of all peak areas to 100% and assigning each peak its percentage. Source data are provided
# R P A N o rm aliz ed V a riation
# Supplementary Figure 10. RPA normalized of variation of DCL with and without dNCS1.
# Aldehyde 1 (1.2 µL, 50 mM), 2a-e (3.6 µL, 50 mM), catalyst (1 µL, 12 M), dNCS-1:1 [1:1], tris
# buffer (20 mM, pH 7.4), 1 mM CaCl2, 0.5 M NaCl, 1 mM DTT, T = 4 °C, 2% DM SO. Error
# bars indicate SD over three experiments. Source data are provided as a Source Data file.
# [4] = tested on: Cortical neurons from E14 wild-type mice; assay: Toxicity in primary cultured neurons (percentage of picnotic bodies); assay type: cell-based; settings: C57BL6J, mouse, 24 h
# From the text: (§1) Mean ± SD from three independent experiments. The curves represent the least squares fitting of the experimental data to a 1:1 stoichiometry. To properly compare the different curves, intensities were normalized and represented. […] Input represents 1/10 cell lysates before IP. Quantifications of each lane from four experiments are shown below the blots. Bars represent percentage of NCS-1/ Ric8a binding (mean ± SD) normalized to DMSO. […] CNS + (green) for Pe > 4.47 × 10^−6 cm s^−1, CNS- (red) for compounds with Pe < 4.47 × 10^–6 cm s^−1. […] Mean ± SD from three independent experiments. […] Then, the percentage of picnotic bodies over the total nuclei was analyzed. Mean ± SD from three independent experiments. Paired two-tailed Student’s test ***P˂0.001; **P < 0.01; *P < 0.05. Source data are provided as a Source Data file. IP immunoprecipitation, WB western blot
# Finally, cell toxicity in neurons was quantified as percentage of picnotic bodies for 3b (Fig. 6d).
# Cortical neurons were obtained from E14 wt mice (C57BL6J). Mice were maintained in accordance to European law and following Hospital Ramón y Cajal´s animal guidelines. […] Three independent experiments counting cells from three different wells per concentration were performed. To analyzed cell death, neurons were fixed and stained with DAPI.
# NCS-1/Ric8a interaction [5] = tested on: NCS-1/Ric8a interaction; parameters: method as in PMID 28119500, PMID 29966094; settings: cited from earlier work
# NCS-1/Ric8a interaction [6] = target: T2, NCS-1/Ric8a interaction (Homo sapiens, UniProt P62166); assay: Co-IP binding assay of human NCS-1 and V5-tagged Ric8a in transfected HEK cells; assay type: cell-based; settings: compound 20 μM
# T2 construct: expressed in transfected cells; host or cells: HEK293 cells (Dharmacon)
# T2 sequence (P62166 2-190 limits assumed): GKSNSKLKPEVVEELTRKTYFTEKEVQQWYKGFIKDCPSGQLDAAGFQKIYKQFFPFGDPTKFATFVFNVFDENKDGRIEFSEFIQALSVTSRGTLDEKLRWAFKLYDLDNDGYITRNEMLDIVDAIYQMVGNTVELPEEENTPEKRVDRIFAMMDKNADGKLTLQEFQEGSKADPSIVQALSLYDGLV
# From the text: as §1
# Binding assays with NCS-1 and Ric8a in co-transfected HEK cells were carried out to study the modulation effect of compounds 3a, 3b and 3d in the protein-protein interaction (Fig. 6b).
# hNCS-1 and V5-tagged hRic8a were co-transfected into HEK293 cells (Dharmacon) using Lipofectamine 2000 (Invitrogen)[13]. After 24 h, after transfection, DMSO alone or the compounds dissolved in DMSO (20 μM) were added to the culture cells. Then, 24 h after transfection, cells were lysed with Lysis buffer (150 mM NaCl, 1.0% Nonidet P-40, 50 mM Tris, pH 8.0) in the presence of the compounds (20 μM), whose concentration was maintained throughout the immunoprecipitation assay. Precleared lysates were incubated overnight (12 h) at 4 °C with mouse anti-NCS-1 (1:500; Cell Signaling). Samples were subsequently incubated overnight with Protein-G-Sepharose (Sigma-Aldrich), washed and eluted from the Sepharose. Samples were analyzed by Western blot following standard procedures. […] Original representative western blots are found in Source Data file.
# [7] = Ca2+ loaded dNCS-1 0.8 µM, pH 7.9, 5% DMSO, 5 °C, fit to 1:1 stoichiometry, three independent experiments
compound,measurement,setting,value
COCCC(=O)N/N=C/c1ccc([N+](=O)[O-])c(O)c1 [3c],apparent Kd,dNCS-1 [1]; [7],did not show affinity
same,binding to dNCS-1 (1H-NMR evolution of the mixture 3c + 2b with dNCS-1),dNCS-1 [2],extremely weak or non-binder
same,degree of amplification in the DCL in presence of dNCS-1,"dNCS-1 [3]; after 5 h, 4 °C, pH 7.4, p-anisidine catalyst",clearly reduced in presence of dNCS-1
same,"RPA, Blank DCL",dNCS-1 [3]; as fraction of total area,0.09603
same,"RPA, Templated DCL","dNCS-1 [3]; as fraction of total area, with dNCS-1",0
same,RPA (%) with protein (templated DCL),dNCS-1 [3]; relative peak area in presence of dNCS-1,0%
same,RPA (%) without protein (blank DCL),"dNCS-1 [3]; relative peak area, sum of all peak areas set to 100%",9.6% and 9.603%
same,"RPA (%), Blank DCL",dNCS-1 [3]; sheet Supplementary Figure 10,9.6%
same,"RPA (%), Templated DCL","dNCS-1 [3]; sheet Supplementary Figure 10, with dNCS-1",0%
same,Normalized Change of RPA,dNCS-1 [3]; with vs without dNCS-1,-1
"CN(C)CCCN1c2ccccc2Sc2ccc(Cl)cc21 [CPZ, Chlorpromazine, reference compound]",Kd,dNCS-1 [1]; [7],12 ± 2 µM
same,Normalized Fluorescence I0-I/I0,dNCS-1 [1]; ligand 3.2 μM,0.266
same,Normalized Fluorescence I0-I/I0,dNCS-1 [1]; ligand 6.4 μM,0.263
same,Normalized Fluorescence I0-I/I0,dNCS-1 [1]; ligand 8 μM,0.448
same,Normalized Fluorescence I0-I/I0,dNCS-1 [1]; ligand 16 μM,0.643
same,Normalized Fluorescence I0-I/I0,dNCS-1 [1]; ligand 24 μM,0.730
same,Normalized Fluorescence I0-I/I0,dNCS-1 [1]; ligand 32 μM,0.794
same,"percentage of picnotic bodies over total nuclei, average",[4]; 0.2 μM,11.1667%
same,"percentage of picnotic bodies, % exp 2",[4]; 0.2 μM,9.6%
same,"percentage of picnotic bodies, % exp 3",[4]; 0.2 μM,11.1%
same,"percentage of picnotic bodies, % exp.1",[4]; 0.2 μM,12.8%
same,"percentage of picnotic bodies over total nuclei, average",[4]; 2 μM,15.1%
same,"percentage of picnotic bodies, % exp 2",[4]; 2 μM,11%
same,"percentage of picnotic bodies, % exp 3",[4]; 2 μM,19.3%
same,"percentage of picnotic bodies, % exp.1",[4]; 2 μM,15%
same,"percentage of picnotic bodies over total nuclei, average",[4]; 10 μM,22.2333%
same,"percentage of picnotic bodies, % exp 2",[4]; 10 μM,25.7%
same,"percentage of picnotic bodies, % exp 3",[4]; 10 μM,15%
same,"percentage of picnotic bodies, % exp.1",[4]; 10 μM,26%
same,"percentage of picnotic bodies over total nuclei, average",[4]; 20 μM,38.7667%
same,"percentage of picnotic bodies, % exp 2",[4]; 20 μM,29.3%
same,"percentage of picnotic bodies, % exp 3",[4]; 20 μM,39%
same,"percentage of picnotic bodies, % exp.1",[4]; 20 μM,48%
same,reported inhibition of the NCS-1/Ric8a interaction,NCS-1/Ric8a interaction [5],mild inhibitor and mild
same,modulation of the NCS-1/Ric8a binding,NCS-1/Ric8a interaction [6]; compared with DMSO (basal binding 100%),reduced binding
same,"Densitometry of V5-Ric8a co-immunoprecipitated with NCS-1, exp3",NCS-1/Ric8a interaction [6]; DMSO in the same experiment 4613104,3547054
same,"Densitometry of V5-Ric8a co-immunoprecipitated with NCS-1, exp2",NCS-1/Ric8a interaction [6]; DMSO in the same experiment 9508518,4354560
same,"Densitometry of V5-Ric8a co-immunoprecipitated with NCS-1, exp1",NCS-1/Ric8a interaction [6]; DMSO in the same experiment 19247016,3883518
